Common to all, as to format: functional
In assay [1] the test system is Staphylococcus aureus. In words: Antimicrobial activity against Staphylococcus aureus ATCC 25923 assessed as diameter of growth inhibition zone at 1000 ug/ml after 24 hr by agar well plate method. The conditions noted are these: ATCC 25923, 24 h, read-out: DIZ.
For assay [2], the system named is Aspergillus flavus. Put plainly: Antimicrobial activity against Aspergillus flavus assessed as diameter of growth inhibition zone at 500 ug/ml after 72 hr by agar well plate method. The conditions noted are these: read-out: DIZ.
For assay [3], the system named is Aspergillus flavus. Put plainly: Antimicrobial activity against Aspergillus flavus assessed as diameter of growth inhibition zone at 1000 ug/ml after 72 hr by agar well plate method. To be noted: read-out: DIZ.
Assay [4] has as its system Staphylococcus aureus. In words: Antimicrobial activity against Staphylococcus aureus ATCC 25923 assessed as diameter of growth inhibition zone at 500 ug/ml after 24 hr by agar well plate method. The conditions noted are these: ATCC 25923, 24 h, read-out: DIZ.
The subject of assay [5] is Pseudomonas aeruginosa. Put plainly: Antimicrobial activity against Pseudomonas aeruginosa ATCC 27853 assessed as diameter of growth inhibition zone at 1000 ug/ml after 24 hr by agar well plate method. The conditions noted are these: ATCC 27853, 24 h, read-out: DIZ.
Assay [6] relates to Escherichia coli. Put plainly: Antimicrobial activity against Escherichia coli ATCC 25922 assessed as diameter of growth inhibition zone at 1000 ug/ml after 24 hr by agar well plate method. To be noted: ATCC 25922, 24 h, read-out: DIZ.
For assay [7], the system named is Chrysosporium keratinophilum. Put plainly: Antimicrobial activity against Chrysosporium keratinophilum assessed as diameter of growth inhibition zone at 500 ug/ml after 72 hr by agar well plate method. The conditions noted are these: read-out: DIZ.
The test system of assay [8] is Chrysosporium keratinophilum. In words: Antimicrobial activity against Chrysosporium keratinophilum assessed as diameter of growth inhibition zone at 1000 ug/ml after 72 hr by agar well plate method. The conditions noted are these: read-out: DIZ.
For assay [9], the system named is Pseudomonas aeruginosa. Put plainly: Antimicrobial activity against Pseudomonas aeruginosa ATCC 27853 assessed as diameter of growth inhibition zone at 500 ug/ml after 24 hr by agar well plate method. The conditions noted are these: ATCC 27853, 24 h, read-out: DIZ.
Assay [10] has as its system Candida albicans. In words: Antimicrobial activity against Candida albicans MTCC 227 assessed as diameter of growth inhibition zone at 500 ug/ml after 72 hr by agar well plate method. To be noted: MTCC 227, 72 h, read-out: DIZ.
Assay [11] concerns Escherichia coli. Put plainly: Antimicrobial activity against Escherichia coli ATCC 25922 assessed as diameter of growth inhibition zone at 500 ug/ml after 24 hr by agar well plate method. The conditions noted are these: ATCC 25922, 24 h, read-out: DIZ.
The test system of assay [12] is Candida albicans. Put plainly: Antimicrobial activity against Candida albicans MTCC 227 assessed as diameter of growth inhibition zone at 1000 ug/ml after 72 hr by agar well plate method. The conditions noted are these: MTCC 227, 72 h, read-out: DIZ.

Consider `COc1ccc(-c2nn(-c3ccccc3)cc2C2CC(c3ccc(SC)cc3)=NN2c2ccccc2)cc1` (centres undefined), for which the zone of inhibition at 1000 µg/mL in [1] was 4 mm; in assay [3], 0 mm; in assay [5], 4 mm; in assay [6] it was 2 mm; in assay [8], 0 mm; in [12] it was 0 mm. Further, the zone of inhibition at 500 µg/mL in assay [2] was found to be 0 mm; in assay [4] it was 3 mm; in assay [7] it was 0 mm; in assay [9] it was 2 mm; in assay [10], 0 mm; in [11], 1 mm.
In the case of `COc1ccc(-c2nn(-c3ccccc3)cc2C2CC(c3ccc(Cl)cc3Cl)=NN2c2ccccc2)cc1` (centres undefined), the zone of inhibition at 1000 µg/mL in assay [1] came out at 4 mm; in [3], 0 mm; in [5], 4 mm; in assay [6] it was 3 mm; in [8], 0 mm; in [12], 0 mm. Also, the zone of inhibition at 500 µg/mL in [2] amounted to 0 mm; in assay [4], 3 mm; in assay [7] it was 0 mm; in assay [9], 1 mm; in [10], 0 mm; in assay [11], 2 mm.
Consider `Clc1ccc(-c2nn(-c3ccccc3)cc2C2CC(c3ccc(Cl)cc3Cl)=NN2c2ccccc2)cc1` (centres undefined), for which the zone of inhibition at 1000 µg/mL was found to be 7 mm in assay [1]; 4 mm in assay [3]; 8 mm in [5]; 6 mm in [6]; 5 mm in [8]; 4 mm in assay [12]. Also, the zone of inhibition at 500 µg/mL in [2] amounted to 2 mm; in assay [4], 4 mm; in [7], 2 mm; in [9] it was 6 mm; in assay [10], 2 mm; in assay [11], 4 mm.
`Clc1ccc(C2=NN(c3ccccc3)C(c3cn(-c4ccccc4)nc3-c3ccc(Br)cc3)C2)c(Cl)c1` (centres undefined): the zone of inhibition at 1000 µg/mL in [1] came out at 8 mm; in assay [3] it was 4 mm; in assay [5], 5 mm; in assay [6], 8 mm; in assay [8], 4 mm; in assay [12], 3 mm. The zone of inhibition at 500 µg/mL stood at 1 mm in [2]; 6 mm in assay [4]; 2 mm in assay [7]; 5 mm in assay [9]; 1 mm in assay [10]; 5 mm in assay [11].
`Clc1ccc(C2=NN(c3ccccc3)C(c3cn(-c4ccccc4)nc3-c3ccccc3)C2)c(Cl)c1` (centres undefined): the zone of inhibition at 1000 µg/mL in [1], in assay [3], in assay [5], in assay [6], in assay [8] and in [12] was 0 mm in each case. Moreover, the zone of inhibition at 500 µg/mL in assay [2], in assay [4], in assay [7], in assay [9], in [10] and in assay [11] was 0 mm throughout.
Regarding `CSc1ccc(C2=NN(c3ccccc3)C(c3cn(-c4ccccc4)nc3-c3ccc(Br)cc3)C2)cc1` (centres undefined), the zone of inhibition at 1000 µg/mL in [1] was found to be 9 mm; in [3], 4 mm; in assay [5], 8 mm; in [6], 7 mm; in assay [8], 6 mm; in [12] it was 4 mm. Besides, the zone of inhibition at 500 µg/mL was 3 mm in assay [2]; 7 mm in [4]; 5 mm in [7]; 6 mm in assay [9]; 2 mm in assay [10]; 6 mm in assay [11].
In the case of `COc1ccc(-c2nn(-c3ccccc3)cc2C2CC(c3ccc(-c4ccccc4)cc3)=NN2c2ccccc2)cc1` (centres undefined), the zone of inhibition at 1000 µg/mL is 4 mm in [1]; 0 mm in assay [3]; 5 mm in [5]; 4 mm in assay [6]; 0 mm in assay [8]; 0 mm in [12]. Also, the zone of inhibition at 500 µg/mL in [2] was found to be 0 mm; in assay [4], 2 mm; in assay [7], 0 mm; in assay [9], 2 mm; in assay [10], 0 mm; in assay [11], 2 mm.
As to `CSc1ccc(C2=NN(c3ccccc3)C(c3cn(-c4ccccc4)nc3-c3ccccc3)C2)cc1` (centres undefined), the zone of inhibition at 1000 µg/mL in assay [1] worked out at 2 mm; in assay [3] it was 0 mm; in assay [5], 3 mm; in assay [6], 3 mm; in [8] it was 0 mm; in assay [12] it was 0 mm. Further, the zone of inhibition at 500 µg/mL was 0 mm in assay [2]; 0 mm in assay [4]; 0 mm in assay [7]; 2 mm in assay [9]; 0 mm in [10]; 1 mm in [11].
Turning to `CSc1ccc(C2=NN(c3ccccc3)C(c3cn(-c4ccccc4)nc3-c3ccc(Cl)cc3)C2)cc1` (centres undefined), the zone of inhibition at 1000 µg/mL in assay [1] worked out at 8 mm; in [3], 3 mm; in [5], 7 mm; in [6], 5 mm; in [8], 3 mm; in [12], 3 mm. Moreover, the zone of inhibition at 500 µg/mL in [2] stood at 2 mm; in [4], 5 mm; in assay [7], 1 mm; in assay [9] it was 4 mm; in [10] it was 1 mm; in [11] it was 4 mm.
On to `Clc1ccc(-c2nn(-c3ccccc3)cc2C2CC(c3ccc(-c4ccccc4)cc3)=NN2c2ccccc2)cc1` (centres undefined), for which the zone of inhibition at 1000 µg/mL in [1] stood at 8 mm; in assay [3], 5 mm; in [5] it was 4 mm; in [6], 7 mm; in assay [8], 4 mm; in assay [12] it was 5 mm. For the same compound, the zone of inhibition at 500 µg/mL was 3 mm in assay [2]; 6 mm in [4]; 3 mm in [7]; 6 mm in assay [9]; 2 mm in [10]; 5 mm in assay [11].
Regarding `Brc1ccc(-c2nn(-c3ccccc3)cc2C2CC(c3ccc(-c4ccccc4)cc3)=NN2c2ccccc2)cc1` (centres undefined), the zone of inhibition at 1000 µg/mL in assay [1] is 6 mm; in assay [3], 6 mm; in assay [5], 7 mm; in [6], 9 mm; in assay [8] it was 4 mm; in assay [12], 5 mm. The zone of inhibition at 500 µg/mL in [2] worked out at 5 mm; in assay [4], 4 mm; in assay [7], 3 mm; in assay [9] it was 5 mm; in assay [10], 4 mm; in assay [11], 6 mm.
For the compound `OC(Cn1cncn1)(Cn1cncn1)c1ccc(F)cc1F` [FLUCONAZOLE], the zone of inhibition at 500 µg/mL in assay [2] worked out at 10 mm; in [7], 15 mm; in [10], 20 mm. For the same compound, the zone of inhibition at 1000 µg/mL in assay [3] was found to be 13 mm; in assay [8], 17 mm; in assay [12], 22 mm.
Consider `CN[C@@H]1[C@H](O[C@H]2[C@H](O[C@H]3[C@H](O)[C@@H](O)[C@H](N=C(N)N)[C@@H](O)[C@@H]3N=C(N)N)O[C@@H](C)[C@]2(O)C=O)O[C@@H](CO)[C@H](O)[C@H]1O` [STREPTOMYCIN], for which the results for the zone of inhibition at 1000 µg/mL in assay [1], in [5] and in assay [6] were 15 mm, 16 mm and 16 mm, respectively. Moreover, the zone of inhibition at 500 µg/mL in assay [4] stood at 10 mm; in [9], 13 mm; in assay [11] it was 10 mm.
